The values below come from patent publication US20260151431A1, “ACTIVATED STEM CELLS AND SYSTEMIC TREATMENT METHODS FOR INFECTED WOUNDS” (Colorado State University Research Foundation, priority 2015, published 2026).

In assay [1] the test system is highly antibiotic-resistant strains of bacteria. Kind of assay: In vitro killing of highly antibiotic-resistant bacteria by activated MSC and antibiotic. The format is cell-based. Conditions: triplicate cultures, assessed 4 h later; antibiotic at very high doses. Here is the method: Using a similar experimental design as described in Example 9, supra, highly antibiotic-resistant strains of bacteria were incubated with activated MSC alone, antibiotics alone (cefazolin (cefa)), or antibiotics+activated MSC in triplicate cultures and bacterial killing assessed 4 h later.

The subject of assay [2] is inflammatory monocytes. The format is in vivo, mice. Conditions: chronic S. aureus infected wounds; i.v. MSC; compared to untreated control animals. As for the experimental part: Studies were done to investigate the impact of activated MSC on host immune responses, including monocyte, macrophage, and neutrophil responses. The numbers of monocytes migrating into wound tissues was determined by use of reporter mice whose inflammatory monocytes all expressed GFP. Wounds from S. aureus infected mice were immunostained for detection of inflammatory monocytes.

For the compound `Cc1nnc(SCC2=C(C(=O)O)N3C(=O)[C@@H](NC(=O)Cn4cnnn4)[C@H]3SC2)s1` [cefazolin], the bacterial killing entry in assay [1] is on record as “little bacterial killing”.
With “amoxicillin-clavulanic acid [antibiotics]”, in assay [2], the “number of monocytes infiltrating the wounds” value is on record as “relatively sparse population of monocytes”.
